In brackets after ≈: the same amount, converted by molar mass. Numbered stars: 1 amine (or outer) side, 2 acyl side, 3 side chain; on linkers, the order of the positions; unused ones are H or OH. Square brackets hold non-standard residues; d marks the D form. Peptide text beside a SMILES is read from it. ξ: configuration not given here. X1 = N=C1NCC(C(O)C(N[*:1])C(=O)[*:2])N1C1OC(CO)C(O)C(O)C1O; ξEnduracididine(βξ-OH,4'ξ) = N=C1NCC(C(O)C(N)C(=O)O)N1
Tests used:
Test in all cases: in vitro antibacterial evaluation, MIC by broth dilution
Assay type in all cases: cell-based
[1] = system: Enterococcus sp.; details: broth dilution, 18 hours at 35° C.
Method in brief: (§1)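 Step 1: dilute antibiotic across 64-0.06 μg/mL in Muller-Hinton II […]. Step 2: inoculate at 5×10^5 CFU/mL.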

[2] = system: Escherichia coli; details: 18 hours at 35° C.
Method in brief: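 Read-out: the lowest concentration at which the test strain fails to grow. Serial dilutions (64-0.06 μg/mL) in Muller-Hinton II […], 5×10^5 CFU/mL inoculum, NCCLS M7-A2 procedure.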

[3] = system: Staphylococcus sp.; details: broth dilution, 18 hours at 35° C.
Method in brief: as §1

[4] = system: Streptococcus sp.; details: broth dilution, 18 hours at 35° C.
Method in brief: as §1

MIC Enterococcus avium (GC 4558) ([1]; Enterococcus avium (GC 4558)): >64 µg/mL
MIC Enterococcus faecalis (ATCC 29212) ([1]; Enterococcus faecalis (ATCC 29212)): >64 µg/mL
MIC Enterococcus faecalis (GC 4553) ([1]; Enterococcus faecalis (GC 4553)): >64 µg/mL
MIC Enterococcus faecalis (GC 4554) ([1]; Enterococcus faecalis (GC 4554)): >64 µg/mL
MIC Enterococcus faecalis (GC 6189) ([1]; Enterococcus faecalis (GC 6189)): >64 µg/mL
MIC Enterococcus faecium (GC 2243) ([1]; Enterococcus faecium (GC 2243)): >64 µg/mL
MIC Enterococcus faecium (GC 4556) ([1]; Enterococcus faecium (GC 4556)): >64 µg/mL
MIC Enterococcus faecium (GC 4557) ([1]; Enterococcus faecium (GC 4557)): 64 µg/mL (≈ 66.9 µM)
MIC Enterococcus faecalis (ATCC 29212) ([1]; strain ATCC 29212): >64 µg/mL
MIC Enterococcus faecalis (GC 2242) ([1]; strain GC 2242): >64 µg/mL
MIC Enterococcus faecium (GC 2243) ([1]; strain GC 2243): >64 µg/mL
MIC Enterococcus faecalis (GC 2691) ([1]; strain GC 2691): >64 µg/mL
MIC Enterococcus faecalis (GC 3059) ([1]; strain GC 3059): >64 µg/mL
MIC Enterococcus faecalis (GC 4552) ([1]; strain GC 4552): >64 µg/mL
MIC Enterococcus faecalis (GC 4553) ([1]; strain GC 4553): >64 µg/mL
MIC Enterococcus faecalis (GC 4554) ([1]; strain GC 4554): >64 µg/mL
MIC Enterococcus faecium (GC 4556) ([1]; strain GC 4556): >64 µg/mL
MIC Enterococcus faecium (GC 4557) ([1]; strain GC 4557): 64 µg/mL (≈ 66.9 µM)
MIC Enterococcus avium (GC 4558) ([1]; strain GC 4558): >64 µg/mL
MIC Enterococcus faecalis (GC 6189) ([1]; strain GC 6189): >64 µg/mL
MIC Escherichia coli (ATCC 25922) ([2]; Escherichia coli (ATCC 25922)): 64 µg/mL (≈ 66.9 µM)
MIC Escherichia coli (GC 4559) ([2]; Escherichia coli (GC 4559)): 64 µg/mL (≈ 66.9 µM)
MIC Escherichia coli (GC 4560) ([2]; Escherichia coli (GC 4560)): 32 µg/mL (≈ 33.4 µM)
MIC Coagulase Negative Staphylococcus (GC 4547) [3]: 64 µg/mL (≈ 66.9 µM)
MIC Coagulase Negative Staphylococcus (GC 4548) [3]: >64 µg/mL
MIC Coagulase Negative Staphylococcus (GC 4549) [3]: 64 µg/mL (≈ 66.9 µM)
MIC Coagulase Negative Staphylococcus (GC 4551) [3]: >64 µg/mL
MIC Coagulase Negative Staphylococcus (GC 6257) [3]: 64 µg/mL (≈ 66.9 µM)
MIC Staphylococcus aureus (ATCC 29213) [3]: >64 µg/mL
MIC Staphylococcus aureus (GC 1131) [3]: >64 µg/mL
MIC Staphylococcus aureus (GC 3051) [3]: >64 µg/mL
MIC Staphylococcus aureus (GC 3053) [3]: >64 µg/mL
MIC Staphylococcus aureus (GC 4541) [3]: >64 µg/mL
MIC Staphylococcus aureus (GC 4542) [3]: >64 µg/mL
MIC Staphylococcus aureus (GC 4544) [3]: >64 µg/mL
MIC Staphylococcus aureus (GC 4545) [3]: >64 µg/mL
MIC Staphylococcus aureus-SMITH (GC 4543) [3]: >64 µg/mL
MIC Staphylococcus aureus (ATCC 29213) ([3]; strain ATCC 29213): >64 µg/mL
MIC Staphylococcus aureus (GC 1131) ([3]; strain GC 1131): >64 µg/mL
MIC Staphylococcus aureus (GC 3051) ([3]; strain GC 3051): >64 µg/mL
MIC Staphylococcus aureus (GC 3053) ([3]; strain GC 3053): >64 µg/mL
MIC Staphylococcus aureus (GC 4541) ([3]; strain GC 4541): >64 µg/mL
MIC Staphylococcus aureus (GC 4542) ([3]; strain GC 4542): >64 µg/mL
MIC Staphylococcus aureus (GC 4544) ([3]; strain GC 4544): >64 µg/mL
MIC Staphylococcus aureus (GC 4545) ([3]; strain GC 4545): >64 µg/mL
MIC Coagulase Negative Staphylococcus (GC 4547) ([3]; strain GC 4547): 64 µg/mL (≈ 66.9 µM)
MIC Coagulase Negative Staphylococcus (GC 4548) ([3]; strain GC 4548): >64 µg/mL
MIC Coagulase Negative Staphylococcus (GC 4549) ([3]; strain GC 4549): 64 µg/mL (≈ 66.9 µM)
MIC Coagulase Negative Staphylococcus (GC 4551) ([3]; strain GC 4551): >64 µg/mL
MIC Coagulase Negative Staphylococcus (GC 6257) ([3]; strain GC 6257): 64 µg/mL (≈ 66.9 µM)
MIC Staphylococcus aureus-SMITH (GC 4543) ([3]; strain SMITH GC 4543): >64 µg/mL
MIC Streptococcus pneumoniae (ATCC 6301) ([4]; strain ATCC 6301): 64 µg/mL (≈ 66.9 µM)
MIC Streptococcus pneumoniae (GC 1894) ([4]; strain GC 1894): 64 µg/mL (≈ 66.9 µM)
MIC Streptococcus pyogenes (GC 4563) ([4]; strain GC 4563): 64 µg/mL (≈ 66.9 µM)
MIC Streptococcus agalactiae (GC 4564) ([4]; strain GC 4564): >64 µg/mL
MIC Streptococcus pneumoniae (GC 4565) ([4]; strain GC 4565): >64 µg/mL
Structure (SMILES): N=C1NCC(C(O)C2NC(=O)C(Cc3ccc(O)cc3)NC(=O)C(Cc3ccccc3)NC(=O)CNC(=O)C(CO)NC(=O)C(C(O)C3CNC(=N)N3C3OC(CO)C(O)C(O)C3O)NC2=O)N1 (stereo not drawn) [Example 279a, Cyclo[glycylphenylalanyltyrosyl-3-(2-iminoimidazolidin-4-yl)seryl-3-(3-hexopyranosyl-2-iminoimidazolidin-4-yl)serylseryl]] (cyclo(GFY[ξEnduracididine(βξ-OH,4'ξ)][X1]S); configuration not given here)
MIC Staphylococcus haemolyticus (GC 4546) [3]: 64 µg/mL (≈ 66.9 µM)
MIC Staphylococcus haemolyticus (GC 4546) ([3]; strain GC 4546): 64 µg/mL (≈ 66.9 µM)

From patent US6914045B2, “Glycopeptide antibiotics” (Wyeth Holdings Corporation, priority 2001, dated 2005)
